Laboratory results from ChEMBL document CHEMBL1158230, “Cytotoxicity and mode of action of aeroplysinin-1 and a related dienonefrom the sponge Aplysina aerophoba” (J Nat Prod, 1996).

Experiments:
Format in all cases: functional, cell-based
[1] = Cytotoxicity against mouse EN19 cells after 3 days by MTT assay; conditions: EN19, 72 h
[2] = Cytotoxicity against buthionine sulfoximine-pretreated human HeLaS3 cells after 2 hrs by MTT assay; conditions: HeLa S3
[3] = Cytotoxicity against buthionine sulfoximine-pretreated mouse EN19 cells after 3 days by MTT assay
[4] = Cytotoxicity against mouse EN19 cells after 2 hrs by MTT assay; conditions: EN19, 2 h
[5] = Cytotoxicity against human HeLaS3 cells after 2 weeks by clonogenic assay; conditions: HeLa S3, 336 h
[6] = Cytotoxicity against buthionine sulfoximine-pretreated human HeLaS3 cells after 4 days by MTT assay; conditions: HeLa S3
[7] = Cytotoxicity against human HeLaS3 cells after 2 hrs by MTT assay; conditions: HeLa S3, 2 h
[8] = Cytotoxicity against buthionine sulfoximine-pretreated mouse EN19 cells after 2 hrs by MTT assay
[9] = Cytotoxicity against human HeLaS3 cells after 4 days by MTT assay; conditions: HeLa S3, 96 h
[10] = Cytotoxicity against mouse EN19 cells after 1 week by clonogenic assay; conditions: EN19, 168 h

Row | SMILES | IC50 [1] | IC50 [2] | IC50 [3] | IC50 [4] | IC50 [5] | IC50 [6] | IC50 [7] | IC50 [8] | IC50 [9] | IC50 [10]
1 | COC1=C(Br)[C@H](O)[C@](O)(CC#N)C=C1Br | 6.2 µM | 5.4 µM | 0.7 µM | 8.2 µM | 27.5 µM | 2.8 µM | 18.8 µM | 1.1 µM | 5.6 µM | 37 µM
2 | NC(=O)CC1(O)C=C(Br)C(=O)C(Br)=C1 [VERONGIAQUINOL] | 26.1 µM | 15.7 µM | 5.4 µM | 46.1 µM | 58 µM | 10.4 µM | 31.9 µM | 3.9 µM | 15.6 µM | 74.3 µM
